How the values were obtained:
[1] = system: C57Bl6/J mice challenged with an intracerebroventricular injection of Aβ1-42 oligomers (AβO); assay: Y-maze test (spatial working memory) in mice icv injected with AβO; type: in vivo, mouse; conditions: day +4
Protocol: (§1) Briefly, 144 C57Bl6/J male mice (3 months of age) were received and housed (4 to 5 per cage) in quarantine during 7 days, or longer. Test items were dosed per os (through oral gavage) once daily at different concentrations from day −1 to day +17.
At day 0, mice received a single icv injection of vehicle or AβO.
At day +4 (i.e. four days after disease induction), spatial working memory was assessed using the Y-maze test.
(§2) The different experimental groups are defined as follow: • GROUP A (vehicle CTRL): po vehicle AND icv injection of vehicle (n=12) • GROUP B (APO CTRL): po vehicle AND icv injection of AβO (n=12) • GROUP C (positive CTRL): po Donepezil subchronic AND icv injection of AβO (n=12) • GROUP D (Donecopride CTRL): po Donecopride (9 mg/kg) AND icv injection of vehicle (n=12) • GROUP E (Flucopride CTRL): po Flucopride (9 mg/kg) AND icv injection of vehicle (n=12) • GROUP F (Donecopride Treated): po Donecopride (1 mg/kg) AND icv injection of AβO (n=12) • GROUP G (Donecopride Treated): po Donecopride (3 mg/kg) AND icv injection of AβO (n=12) • GROUP H (Donecopride Treated): po Donecopride (9 mg/kg) AND icv injection of AβO (n=12) • GROUP I (Fluocopride Treated): po Flucopride (1 mg/kg) AND icv injection of AβO (n=12) • GROUP J (Flucopride Treated): po Flucopride (3 mg/kg) AND icv injection of AβO (n=12) • GROUP K (Flucopride Treated): po Flucopride (9 mg/kg) AND icv injection of AβO (n=12) • GROUP L (positive CTRL): ip Donepezil acute on test days AND icv injection of AβO (n=12)
(§3) For per os dosing, Donecopride and Flucopride were formulated by solubilization in 0.9% NaCl. Compound dosing (total volume of 200 μL) started one day before induction of the disease (through icv injection of AβO) and was done for 19 consecutive days.
(§4) Single intra-cerebroventricular injection of 144 mice with vehicle or APO (max. 24 mice per day, all mice randomized): under anesthesia (ip injection of a mixture of ketamine/xylasine at a dose of 110 and 15 mg/kg, respectively) AβO (1 μL), or vehicle (1 μL) were injected into the right lateral ventricle. Injections were made using 10 μL Hamilton micro syringes fitted with a 26-gauge needle. The procedure was terminated by a subcutaneous injection of metacam (analgesia) at a dose of 5 mg/kg. Animals were then placed individually in their home-cage and the cage was placed in a heated cabinet until the animal has fully recovered. Animals were carefully monitored to control recovery after anesthesia.
(§5) Preparation of APO: Aβ1-42 was obtained from Bachem (ref H1368) (batch number: 1052301). The preparation of stable Aβ1-42 oligomers was performed as described in Garcia et al. (2010) J. Neurosci. 30:7516-7527. The oligomeric preparation (identified as Batch #2016-14) contained a mixture of stable trimers and tetramers of Aβ1-42, as well as monomeric forms of the peptide. All oligomer preparations used were previously characterized in terms of oligomer composition and in vitro neurotoxicity.
(§6) 6 independent trials involving each 24 mice (i.e. 2 mice from each experimental group) for a total of 144 mice at day +4—Behavioral tests were performed 1 h after dosing.
Detailed protocol: Immediate spatial working memory performance was assessed by recording spontaneous alternation behavior in a Y-maze. The maze is made of opaque Plexiglas and each of the three arms is 40 cm long, 14 cm high, 10 cm wide and positioned at equal angles. The apparatus is placed in a homogeneously lit test room to obtain 12-15 lux in all arms as well as in the central zone. Mice are placed in the middle of one arm and allowed to explore the maze freely during 5 min session. The series of arm entries are video recorded (Smart v3.0 software, Bioseb) and an arm entry is considered complete when the hind paws of the mouse are completely placed in the arm. Alternation is defined as successive entries into the 3 arms on overlapping triplet sets. […]

[2] = system: C57Bl6/J mice challenged with an intracerebroventricular injection of Aβ1-42 oligomers (AβO); assay: Novel Object Recognition assay in mice icv injected with AβO; type: in vivo, mouse; conditions: for mean discrimination index (NOR): day +16; for AβO-induced impairment of recognition memory (NOR): at all doses (1, 3, 9 mg/kg/day po)
Protocol: as §1
At days +15/+16, recognition memory was investigated using the Novel Object recognition test (NOR).
as §2, §3, §4, §5, §6
Detailed protocol: One day before the cognitive test (i.e. at day +15), mice are habituated during a 10 minutes' trial during which they are placed in an empty open field. The day of the cognitive test (i.e. day +16), animals are placed in the same open field and are allowed to explore freely two identical objects for a trial of five minutes (acquisition trial). Then the animals are returned in their home-cage for an inter-trial time of five minutes. During the retention trial, animals are allowed to explore two different objects: one familiar and one novel object. During this time, the experimenter, blind to the treatment, record the time the mouse is actively exploring each object. All trials are video recorded (Smart v3.0 software, Bioseb). A discrimination index is then generated: Discrimination index=(time exploring novel object−time exploring familiar object)/total exploration time. […]

[3] = 9 mg/kg/day po, icv vehicle (no AβO)
[4] = ip acute on test day, icv AβO (Group L)

## COc1cc(N)c(Cl)cc1C(=O)CCC1CCN(CC2CCCCC2)CC1 [Donecopride]
[1]; 1 mg/kg/day po, icv AβO
  alternation behavior (Y-maze): 56.6±3.7%
[1]; 3 mg/kg/day po, icv AβO
  alternation behavior (Y-maze): 65.5±4.4%
[1]; 9 mg/kg/day po, icv AβO
  alternation behavior (Y-maze): 64.3±5.1%
[1]; [3]
  alternation behavior (Y-maze): 59.3±4.0%
[2]; 9 mg/kg/day po, icv AβO
  mean discrimination index (NOR): 0.43±0.06
[2]; 9 mg/kg/day po, icv vehicle
  mean discrimination index (NOR): 0.29±0.04
[2]; icv AβO
  AβO-induced impairment of recognition memory (NOR): dose-dependent inhibition

## COc1cc2c(cc1OC)C(=O)C(CC1CCN(Cc3ccccc3)CC1)C2 (stereo not drawn) [Donepezil, reference compound]
[1]; [4]
  alternation behavior (Y-maze): 60.8±1.9%
[1]; per os subchronic, icv AβO (Group C)
  alternation behavior (Y-maze): 66.1±1.8%
[2]; [4]
  mean discrimination index (NOR): 0.30±0.07
[2]; po sub-chronic, icv AβO (Group C)
  mean discrimination index (NOR): 0.29±0.09

## COc1cc(N)c(F)cc1C(=O)CCC1CCN(CC2CCCCC2)CC1 [Flucopride]
[1]; 1 mg/kg/day po, icv AβO
  alternation behavior (Y-maze): 67.1±2.7%
[1]; 3 mg/kg/day po, icv AβO
  alternation behavior (Y-maze): 65.3±4.1%
[1]; 9 mg/kg/day po, icv AβO
  alternation behavior (Y-maze): 59.1±3.0%
[1]; [3]
  alternation behavior (Y-maze): 63.1±2.3%
[2]; 3 mg/kg/day po, icv AβO
  mean discrimination index (NOR): 0.46±0.05
[2]; 9 mg/kg/day po, icv vehicle
  mean discrimination index (NOR): 0.36±0.06
[2]; icv AβO
  AβO-induced impairment of recognition memory (NOR): dose-dependent inhibition (bell-shaped curve)
